Test results as given in patent publication US20200399264A1, “4-SUBSTITUTED-2-THIAZOLE AMIDES AS ANTIVIRAL AGENTS” (Southern Research Institute, priority 2019, published 2020).

Legend:
[1] = cell cytotoxicity in a cell viability assay (CC50); assay type: cell-based; conditions: concentration required for 50% cell survival
Text: As used herein, “CC50,” is intended to refer to the cell cytotoxicity to the concentration of a substance (e.g., a compound or a drug) that is required for 50% cell survival in a cell viability assay in vitro.

CHIKV = test: antiviral activity against CHIKV (VTR and EC90); assay type: cell-based; conditions: Chikungunya virus; for log reduction at 10 µM: read-out: VTR @ 10 μM (logs)
Text: As used herein, “EC90,” is intended to refer to the concentration of a substance (e.g., a compound or a drug) that is required for 90% agonism of a biological process, or component of a process, including a protein, subunit, organelle, ribonucleoprotein, etc. In one aspect, an EC90 can refer to the concentration of a substance that is required for 90% agonism in vivo, as further defined elsewhere herein. In a further aspect, […].

In the case of `CSc1ncccc1C(=O)Nc1nc(-c2cc(C(=O)O)cc(-c3ccc(C#N)cc3)c2)cs1` [Compound 21, 4′-cyano-5-(2-(2-(methylthio)nicotinamido)thiazol-4-yl)-[1,1′-biphenyl]-3-carboxylic Acid], the CC50 [1] is reported as greater than 40 µM and the log reduction at 10 µM (CHIKV) is reported as less than 1.
`CSc1ncccc1C(=O)Nc1nc(-c2cccc(-c3ccc(C#N)cc3)c2)cs1` [Compound 4, N-(4-(4′-Cyano-[1,1′-biphenyl]-3-yl)thiazol-2-yl)-2-(methylthio)nicotinamide] gave a CC50 [1] greater than 40 µM, an EC90 (CHIKV) of 0.31 µM and a log reduction at 10 µM (CHIKV) of 4.73.
With `CSc1ncccc1C(=O)Nc1nc(-c2cccc(-c3ccccn3)c2)cs1` [Compound 2, 2-(Methylthio)-N-(4-(3-(pyridin-2-yl)phenyl)thiazol-2-yl)nicotinamide] the CC50 [1] was greater than 30 µM, the EC90 (CHIKV) was 0.7 µM and the log reduction at 10 µM (CHIKV) was 3.97.
Work on `CSc1ncccc1C(=O)Nc1nc(-c2cccc(N3CCN(S(C)(=O)=O)CC3)c2)cs1` [Compound 33, N-(4-(3-(4-(methylsulfonyl)piperazin-1-yl)phenyl)thiazol-2-yl)-2-(methylthio)nicotinamide] yielded a CC50 [1] greater than 40 µM and a log reduction at 10 µM (CHIKV) of 2.04.
In the case of `CSc1ncccc1C(=O)Nc1nc(-c2cccc(-c3ccc(C#N)c(O)c3)c2)cs1` [Compound 22, N-(4-(4′-Cyano-3′-hydroxy-[1,1′-biphenyl]-3-yl)thiazol-2-yl)-2-(methylthio)nicotinamide], the CC50 [1] is reported as greater than 30 µM, the EC90 (CHIKV) is reported as 1.6 µM and the log reduction at 10 µM (CHIKV) is reported as 8.5.
Compound `CSc1ncccc1C(=O)Nc1nc(-c2cccc(-c3ccncc3)c2)cs1` [Compound 3, 2-(Methylthio)-N-(4-(3-(pyridin-4-yl)phenyl)thiazol-2-yl)nicotinamide] has a CC50 [1] greater than 40 µM and a log reduction at 10 µM (CHIKV) of less than 1.
Work on `CSc1ncccc1C(=O)Nc1nc(-c2cccc(-c3cccc(C#N)c3)c2)cs1` [Compound 5, N-(4-(3′-Cyano-[1,1′-biphenyl]-3-yl)thiazol-2-yl)-2-(methylthio)nicotinamide] yielded a CC50 [1] greater than 40 µM, an EC90 (CHIKV) of 0.098 µM and a log reduction at 10 µM (CHIKV) of 5.25.
With `CSc1ncccc1C(=O)Nc1nc(-c2cccc(Nc3ccccc3C#N)c2)cs1` [Compound 39, N-(4-(3-((2-Cyanophenyl)amino)phenyl)thiazol-2-yl)-2-(methylthio)nicotinamide] the CC50 [1] was greater than 40 µM, the EC90 (CHIKV) was 0.5 µM and the log reduction at 10 µM (CHIKV) was 5.23.
Compound `COc1c(F)cc(C(=O)Nc2nc(-c3cccc(-c4ccc(C#N)cc4)c3)cs2)cc1F` [Compound 10, N-(4-(4′-Cyano-[1,1′-biphenyl]-3-yl)thiazol-2-yl)-3,5-difluoro-4-methoxybenzamide] has a CC50 [1] greater than 30 µM, an EC90 (CHIKV) of 0.31 µM and a log reduction at 10 µM (CHIKV) of 7.6.
With `CSc1ncccc1C(=O)Nc1nc(-c2cccc(-c3ccc(F)cn3)c2)cs1` [Compound 15, N-(4-(3-(5-Fluoropyridin-2-yl)phenyl)thiazol-2-yl)-2-(methylthio)nicotinamide] the CC50 [1] was greater than 40 µM, the EC90 (CHIKV) was 0.33 µM and the log reduction at 10 µM (CHIKV) was 5.64.
`CSc1ncccc1C(=O)Nc1nc(-c2cc(Cl)cc(Nc3ccc(C#N)cc3)c2)cs1` [Compound 49, N-(4-(3-chloro-5-((4-cyanophenyl)amino)phenyl)thiazol-2-yl)-2-(methylthio)nicotinamide] showed a CC50 [1] greater than 40 µM, an EC90 (CHIKV) of 0.21 µM and a log reduction at 10 µM (CHIKV) of 5.84.
`CC(C)(C)c1ccc(C(=O)Nc2nc(-c3cccc(-c4ccc(CN)cc4)c3)cs2)cc1` [Compound 27, N-(4-(4′-(Aminomethyl)-[1,1′-biphenyl]-3-yl)thiazol-2-yl)-4-(tert-butyl)benzamide] gave a CC50 [1] of 9.02 µM, an EC90 (CHIKV) of 1.27 µM and a log reduction at 10 µM (CHIKV) of 5.24.
Work on `CSc1ncccc1C(=O)Nc1nc(-c2cccc(-c3ccc(C#N)cn3)c2)cs1` [Compound 14, N-(4-(3-(5-Cyanopyridin-2-yl)phenyl)thiazol-2-yl)-2-(methylthio)nicotinamide] yielded a CC50 [1] greater than 40 µM, an EC90 (CHIKV) of 0.62 µM and a log reduction at 10 µM (CHIKV) of 6.
For `CSc1ncccc1C(=O)Nc1nc(-c2cccc(-c3ccc(CN)cc3)c2)cs1` [Compound 26, N-(4-(4′-(aminomethyl)-[1,1′-biphenyl]-3-yl)thiazol-2-yl)-2-(methylthio)nicotinamide], the CC50 [1] was greater than 40 µM, the EC90 (CHIKV) was 0.75 µM and the log reduction at 10 µM (CHIKV) was 8.75.
In the case of `N#Cc1ccc(-c2cccc(-c3csc(NC(=O)C4CCNCC4)n3)c2)cc1` [Compound 11, N-(4-(4′-Cyano-[1,1′-biphenyl]-3-yl)thiazol-2-yl)piperidine-4-carboxamide], the CC50 [1] is reported as greater than 30 µM and the log reduction at 10 µM (CHIKV) is reported as 8.5.
Compound `COc1ncc(-c2cccc(-c3csc(NC(=O)c4cccnc4SC)n3)c2)cn1` [Compound 28, N-(4-(3-(2-Methoxypyrimidin-5-yl)phenyl)thiazol-2-yl)-2-(methylthio)nicotinamide] has a CC50 [1] greater than 40 µM and a log reduction at 10 µM (CHIKV) of 2.52.
Work on `CC(C)(C)c1ccc(C(=O)Nc2nc(-c3cccc(-c4ccc(C#N)cc4)c3)cs2)cc1` [Compound 9, 4-(Tert-butyl)-N-(4-(4′-cyano-[1,1′-biphenyl]-3-yl)thiazol-2-yl)benzamide] yielded a CC50 [1] greater than 40 µM, an EC90 (CHIKV) of 0.28 µM and a log reduction at 10 µM (CHIKV) of 4.68.
Work on `CSc1ncccc1C(=O)Nc1nc(-c2cccc(N3CCCC3=O)c2)cs1` [Compound 35, 2-(Methylthio)-N-(4-(3-(2-oxopyrrolidin-1-yl)phenyl)thiazol-2-yl)nicotinamide] yielded a CC50 [1] of 39.4 µM and a log reduction at 10 µM (CHIKV) of less than 1.
For `CSc1ncccc1C(=O)Nc1nc(-c2cccc(Nc3ccc(C)c(C#N)c3)c2)cs1` [Compound 48, N-(4-(3-((3-cyano-4-methylphenyl)amino)phenyl)thiazol-2-yl)-2-(methylthio)nicotinamide], the CC50 [1] was greater than 40 µM, the EC90 (CHIKV) was 0.89 µM and the log reduction at 10 µM (CHIKV) was 4.52.
Work on `N#Cc1ccc(Nc2cccc(-c3csc(NC(=O)C45CC(C#N)(C4)C5)n3)c2)cc1` [Compound 52, 3-cyano-N-(4-(3-((4-cyanophenyl)amino)phenyl)thiazol-2-yl)bicyclo[1.1.1]pentane-1-carboxamide] yielded a CC50 [1] of 9 µM, an EC90 (CHIKV) of 1.5 µM and a log reduction at 10 µM (CHIKV) of 5.58.
